One assay deals with T1, SRC kinase (Homo sapiens, UniProt P12931).
T1 construct: purchased Upstate Biotechnology 14-117
The assay can be described thus: Assay for inhibition of SRC kinase activity. The format is biochemical. As to conditions: fluorescence polarization, read-out: percentage inhibition at 20 μM. How it is done: 2) Assay for Inhibition of SRC Kinase Activity
The inhibition is determined by fluorescence polarization, the […] kinase phosphorylates a peptide detected by adding an anti-phosphopeptide antibody coupled to a fluorescent label.
The assay is carried out in a final volume of 50 μl; all the reagents are prepared in a buffer: • 25 mM HEPES/NaOH pH 7.6 • 5 mM MgCl2 • 2 mM MnCl2 • 50 μM Na2VO4 5 μl of the 10-times concentrated inhibitor are added to 25 μl of enzyme (12 U/ml final concentration), (Upstate Biotechnology ref 14-117). After incubation for 5 minutes at ambient temperature, 10 μl of PolyGluTyr 4/1 (150 ng/ml final concentration) and 10 μl of ATP (5 μM final concentration) are added. The detection is carried out after incubation for 20 minutes at ambient temperature. • Results obtained expressed as percentage inhibition at 20 μM • Example 8 98% • Example 15 99% • Example 20 99% • Example 24 99% • Example 27 95% • Example 30 99% • Example 32 100% • Example 38 95% 3) Assay for Inhibition of CDK2 Activity
(In general: Fluorescence polarisation rises when a labelled molecule tumbles more slowly, as on binding a larger partner.)

The target of a further assay is CaCiv1 (Candida albicans, UniProt A0A1D8PH53). The assay can be described thus: Assay for inhibition of CIV-CDK (CIV1) activity. Format: biochemical. As to conditions: CaCiv1 with Cdk2 substrate, [33P]ATP, 30 min ambient temperature; read-out: IC50 as micromolar. From the text: 1) Assay for Inhibition of CIV-CDK (CIV1) Activity
Sequence of CaCiv1 (A0A1D8PH53 entry or part of it): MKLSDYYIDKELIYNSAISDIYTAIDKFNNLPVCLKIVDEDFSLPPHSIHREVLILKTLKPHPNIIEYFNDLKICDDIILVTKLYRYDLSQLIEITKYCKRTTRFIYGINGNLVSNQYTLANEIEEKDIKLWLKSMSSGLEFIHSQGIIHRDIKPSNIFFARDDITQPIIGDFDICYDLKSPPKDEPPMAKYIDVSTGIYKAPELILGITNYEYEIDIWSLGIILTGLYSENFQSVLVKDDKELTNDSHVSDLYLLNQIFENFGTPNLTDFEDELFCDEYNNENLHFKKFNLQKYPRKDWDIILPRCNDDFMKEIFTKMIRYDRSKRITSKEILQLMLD
a) Preparation of the Reagents

The next assay has as its target T2, ZAP kinase (Homo sapiens, UniProt P43403).
T2 construct: purchased Panvera P2782
T2 sequence (P43403 1-619): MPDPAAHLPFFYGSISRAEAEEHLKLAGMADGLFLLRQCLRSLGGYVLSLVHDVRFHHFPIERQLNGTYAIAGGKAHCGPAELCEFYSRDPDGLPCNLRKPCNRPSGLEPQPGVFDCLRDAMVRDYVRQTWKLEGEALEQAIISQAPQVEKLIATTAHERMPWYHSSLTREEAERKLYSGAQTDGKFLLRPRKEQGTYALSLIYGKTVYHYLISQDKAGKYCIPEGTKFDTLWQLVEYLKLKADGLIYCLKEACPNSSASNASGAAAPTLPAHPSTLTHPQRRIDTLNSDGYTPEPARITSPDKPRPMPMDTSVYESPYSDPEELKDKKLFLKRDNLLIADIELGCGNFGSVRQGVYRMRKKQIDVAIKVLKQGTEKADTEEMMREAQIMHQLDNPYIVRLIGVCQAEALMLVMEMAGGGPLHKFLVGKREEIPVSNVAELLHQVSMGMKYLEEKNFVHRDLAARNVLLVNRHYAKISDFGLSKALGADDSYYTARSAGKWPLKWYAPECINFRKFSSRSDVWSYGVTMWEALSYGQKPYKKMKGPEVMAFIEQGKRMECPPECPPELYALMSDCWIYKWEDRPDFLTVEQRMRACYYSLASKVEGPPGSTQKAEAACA
Description: Assay for inhibition of ZAP kinase activity. Format: biochemical. As to conditions: fluorescence polarization, read-out: percentage inhibition at 20 μM. How it is done:
The inhibition of the kinase activity is determined by fluorescence polarization, the ZAP kinase phosphorylates a peptide detected by adding an anti-phosphopeptide antibody coupled to a fluorescent label.
The assay is carried out in a final volume of 50 μl; all the reagents are prepared in a buffer: • 20 mM Tris/HCl pH 7.7 • 7 mM MnCl2 • 50 μM Na2VO4 5 μl of the 10-times concentrated inhibitor are added to 25 μl of enzyme (0.7 μg/ml final concentration) (Panvera ref P2782). After incubation for 5 minutes at ambient temperature, 10 μl of PolyGT (300 ng/ml final concentration) and 10 μl of ATP (0.25 μM final concentration) are added. The detection is carried out after incubation for 15 minutes at ambient temperature. • Results obtained expressed as percentage inhibition at 20 μM • Example 8 98% • Example 20 95% • Example 24 96% 7) Assay for Inhibition of Casein Kinase II Activity

The next assay relates to Candida glabrata. Description: Minimum inhibitory concentration in liquid medium, micro method (NCCLS M27-A). As to conditions: Nakaseomyces glabratus, read-out: MIC Candida glabrata. Format: cell-based. How it is done: (§1) The assay is carried out in a final volume of 40 μl; all the reagents are prepared in a buffer: • 50 mM HEPES pH 7.5 • 0.03% triton X100 • 10 mM MgCl2 • 5% Glycerol • 1 mM DTT 10 μl of the 10-times concentrated inhibitor are added to 5 μl of enzyme (75 ng final concentration), and 5 μl of peptide (1 μM final concentration), then 2.5 μl of incubation buffer containing 40 μM ATP and 2.5 μl of radiolabeled ATP, [^33P]ATP (500 nCi), are added. After incubation for 15 minutes at ambient temperature, 10 μl of incubation buffer containing 192 nM of substrate. […] Reference method for broth dilution antifungal susceptibility testing of yeasts. Approved Standard M27-A. NCCLS, Villanova, Pa.); the minimum concentration with which a visible decrease is observed in the cloudiness of the cell growth (at least 80% compared to a control without product) is the Minimum Inhibitory Concentration (MIC) of the antifungal agent with respect to the strain tested.
(§2) RPMI 1640 medium (liquid) without L-glutamine is supplemented with L-glutamine (0.3 g/l or 10.5 ml of a solution at 200 mM) and buffered with 34.54 g/l (0.165 M) of morpholinepropanesulfonic acid (MOPS). The medium is sterilized by filtration. 100 μl of RPMI medium are distributed into each well of a 96-well plate. The appropriate volume. of the antifungal solution is distributed in the first column of the microplate and supplemented with 200 μl of medium. Doubling dilutions are made so as to establish a range of 11 concentrations in each line of the microplate. The 12th well of each row will serve as a growth control. The cell suspension is prepared from a culture (liquid or agar) or from a frozen vial, and is diluted in RPMI medium so as to obtain a cell suspension at 5×10^3−2×10^4 cells/ml. 100 μl of the cell suspension are distributed in the microplate. For all species of Candida, the MIC is read after 24-48 h, and for Cryptococcus and Aspergillus after 48-72 h, of incubation at 37° C. in a normal atmosphere. The MIC is read by visual reading, determining the well which contains the lowest dose of antifungal agent which causes at least 80% inhibition of the growth of the fungus.

For the next assay, the system named is Aspergillus fumigatus. The assay is described as above. As to conditions: at least 80% inhibition of growth, read after 48-72 h at 37° C., RPMI 1640. The format is cell-based. How it is done: as §1, §2
The next assay deals with Candida albicans. The assay is described as above. The conditions noted are these: read-out: MIC Candida albicans. The format is cell-based. How it is done:
as §1, §2

In the next assay the target is FAK (Homo sapiens, UniProt Q05397). Description: Assay for inhibition of FAK activity (autophosphorylation). The format is biochemical. As to conditions: fluorescence polarization, ATP 1 μM; read-out: IC50s expressed as micromolar. How it is done:
The inhibition of the kinase activity is determined by fluorescence polarization, the autophosphorylation of FAK is detected by adding an anti-phosphoprotein antibody coupled to a fluorescent label.
The assay is carried out in a final volume of 30 μl; all the reagents are prepared in a buffer: • 50 mM HEPES pH 7.5 • 0.03% triton X100 • 10 mM MgCl2 • 5% Glycerol • 1 mM DTT 10 μl of the 10-times concentrated inhibitor are added to 5 μl of enzyme (100 ng final concentration), and 5 μl of incubation buffer and 10 μl of ATP (1 μM final concentration) are added.

The next assay has as its target T3, EGF tyr Kinase (Homo sapiens, UniProt P00533).
T3 construct: purchased Tebu SE-124
The assay can be described thus: Assay for inhibition of EGF tyr kinase activity. The conditions noted are these: [33P]ATP, read-out: percentage inhibition at 20 μM. Format: biochemical. How it is done:
The inhibition of the kinase activity is determined by measuring the phosphorylation of its substrate peptide.
The assay is carried out in a final volume of 100 μl.
The incubation buffer is as follows:
• 5 mM Hepes/Tris pH 7.4 • 2% Glycerol • 0.2% triton X100 10 μl of the 10-times concentrated inhibitor are added to 20 μl of incubation buffer containing 1 U/μl final concentration of the enzyme (Tebu, SE-124); 30 μl of incubation buffer containing 0.43 mg/ml final concentration of peptide substrate are then added along with 20 μl of incubation buffer containing 0.4 μM of enzyme and, finally, 20 μl of 6 mM tris/HCl pH 7.4, 15 mM MgCl2 buffer containing 10 μM ATP and radiolabeled ATP, [^33P]ATP (0.25 μCi), are added. The reaction is stopped after incubation for 60 minutes at 30° C. • Results obtained expressed as percentage inhibition at 20 μM • Example 20 100% 10) Assay for Inhibition of AKT Activity

In brackets after ≈: the same amount, converted by molar mass.

Here are results for 1 compound from patent US7476670B2, “Purine derivatives, method for preparing, pharmaceutical compositions and novel use” (Aventis Pharma S.A., priority 2003, dated 2009).

Sequence of FAK (Q05397 whole entry, species assumed): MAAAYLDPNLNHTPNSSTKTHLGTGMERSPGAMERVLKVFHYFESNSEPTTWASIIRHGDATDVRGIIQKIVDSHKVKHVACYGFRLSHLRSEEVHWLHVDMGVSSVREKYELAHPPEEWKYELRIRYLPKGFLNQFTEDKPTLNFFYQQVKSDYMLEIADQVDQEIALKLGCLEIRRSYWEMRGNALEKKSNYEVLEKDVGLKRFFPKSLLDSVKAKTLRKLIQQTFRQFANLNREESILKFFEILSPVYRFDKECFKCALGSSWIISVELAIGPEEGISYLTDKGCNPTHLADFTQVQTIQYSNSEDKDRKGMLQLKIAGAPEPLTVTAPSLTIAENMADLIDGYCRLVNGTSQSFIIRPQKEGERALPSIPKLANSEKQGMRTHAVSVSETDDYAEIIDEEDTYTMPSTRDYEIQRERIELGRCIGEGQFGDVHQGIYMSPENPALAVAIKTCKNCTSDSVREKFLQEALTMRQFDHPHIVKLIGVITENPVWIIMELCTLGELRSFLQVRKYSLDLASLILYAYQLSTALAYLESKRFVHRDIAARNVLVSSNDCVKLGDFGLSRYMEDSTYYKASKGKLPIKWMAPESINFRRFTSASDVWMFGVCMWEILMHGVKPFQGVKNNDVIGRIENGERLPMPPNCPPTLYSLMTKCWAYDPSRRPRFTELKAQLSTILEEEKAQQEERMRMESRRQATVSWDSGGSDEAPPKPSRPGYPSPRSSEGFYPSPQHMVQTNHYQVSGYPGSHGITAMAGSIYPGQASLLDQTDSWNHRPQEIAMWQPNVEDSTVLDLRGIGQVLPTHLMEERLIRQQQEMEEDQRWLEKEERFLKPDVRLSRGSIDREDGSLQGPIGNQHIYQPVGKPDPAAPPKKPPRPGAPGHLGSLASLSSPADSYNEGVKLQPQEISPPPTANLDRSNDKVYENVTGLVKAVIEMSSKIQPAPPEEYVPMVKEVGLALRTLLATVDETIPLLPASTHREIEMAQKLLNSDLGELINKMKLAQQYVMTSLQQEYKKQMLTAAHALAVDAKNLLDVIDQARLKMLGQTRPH
T3 sequence (P00533 25-1210): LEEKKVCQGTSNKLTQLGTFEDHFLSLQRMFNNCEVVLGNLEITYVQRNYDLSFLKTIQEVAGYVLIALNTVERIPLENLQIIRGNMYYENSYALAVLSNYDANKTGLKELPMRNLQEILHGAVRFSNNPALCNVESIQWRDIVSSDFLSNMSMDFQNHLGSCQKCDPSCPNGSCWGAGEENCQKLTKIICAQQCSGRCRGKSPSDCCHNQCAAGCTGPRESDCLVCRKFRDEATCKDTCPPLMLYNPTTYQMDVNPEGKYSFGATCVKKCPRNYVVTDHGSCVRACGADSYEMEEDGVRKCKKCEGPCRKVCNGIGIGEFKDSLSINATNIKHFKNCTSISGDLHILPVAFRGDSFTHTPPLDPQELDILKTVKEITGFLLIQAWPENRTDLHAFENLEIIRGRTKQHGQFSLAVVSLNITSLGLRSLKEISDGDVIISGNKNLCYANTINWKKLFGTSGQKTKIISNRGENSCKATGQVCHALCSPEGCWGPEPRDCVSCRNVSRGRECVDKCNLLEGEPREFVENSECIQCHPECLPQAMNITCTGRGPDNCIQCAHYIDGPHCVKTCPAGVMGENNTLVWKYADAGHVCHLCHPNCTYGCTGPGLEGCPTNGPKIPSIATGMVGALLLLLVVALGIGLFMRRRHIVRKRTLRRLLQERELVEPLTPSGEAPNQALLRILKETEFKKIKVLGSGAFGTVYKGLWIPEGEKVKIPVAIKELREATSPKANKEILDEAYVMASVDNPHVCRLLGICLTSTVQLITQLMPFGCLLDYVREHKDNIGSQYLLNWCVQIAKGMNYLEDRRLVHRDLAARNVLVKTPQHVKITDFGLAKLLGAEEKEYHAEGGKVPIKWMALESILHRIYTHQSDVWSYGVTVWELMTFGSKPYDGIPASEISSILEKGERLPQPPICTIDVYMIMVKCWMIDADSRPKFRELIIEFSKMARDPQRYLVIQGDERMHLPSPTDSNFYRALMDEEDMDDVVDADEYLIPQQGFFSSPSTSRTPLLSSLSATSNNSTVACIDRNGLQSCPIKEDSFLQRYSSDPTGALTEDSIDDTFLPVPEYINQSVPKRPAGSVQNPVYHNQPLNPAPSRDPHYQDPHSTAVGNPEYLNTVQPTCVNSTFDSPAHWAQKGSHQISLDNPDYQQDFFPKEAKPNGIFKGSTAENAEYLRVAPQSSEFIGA
T1 sequence (P12931 whole entry): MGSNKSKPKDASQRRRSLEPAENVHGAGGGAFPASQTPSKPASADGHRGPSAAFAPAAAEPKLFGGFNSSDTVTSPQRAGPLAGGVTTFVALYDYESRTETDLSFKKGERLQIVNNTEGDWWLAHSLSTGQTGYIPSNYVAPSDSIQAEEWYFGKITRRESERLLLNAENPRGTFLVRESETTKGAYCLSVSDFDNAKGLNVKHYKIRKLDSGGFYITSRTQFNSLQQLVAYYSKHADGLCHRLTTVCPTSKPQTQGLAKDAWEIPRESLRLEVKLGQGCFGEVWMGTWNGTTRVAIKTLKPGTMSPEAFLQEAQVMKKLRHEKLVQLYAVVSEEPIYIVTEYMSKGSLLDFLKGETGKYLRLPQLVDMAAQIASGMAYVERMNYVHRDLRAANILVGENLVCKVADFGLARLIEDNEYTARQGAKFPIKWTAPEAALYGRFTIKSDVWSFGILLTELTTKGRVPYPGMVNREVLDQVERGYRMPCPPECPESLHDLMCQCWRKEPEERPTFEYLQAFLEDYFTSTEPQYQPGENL

On to `N[C@H]1CC[C@H](Nc2nc(-n3cnc4cc(OCc5ccccc5)ccc43)c3nc[nH]c3n2)CC1` [Example 20, Trans-N-[6-[5-(phenylmethoxy)-1H-benzimidazol-1-yl]-9H-purin-2-yl]-1,4-cyclohexanediamine], for which the inhibition (usually how much of the control response was suppressed) at 20 µM turned out to be 99% at SRC kinase, 95% on ZAP kinase and 100% on EGF tyr Kinase. For the same compound, the IC50 amounted to 1.7 µM on CaCiv1 and 1.6 µM on FAK. The MIC (commonly the lowest concentration found to suppress growth) with Candida glabrata stood at 16 µg/mL (≈ 35.2 µM); in the assay on Candida albicans, 32 µg/mL (≈ 70.4 µM). This compound returned an MIC Aspergillus fumigatus with Aspergillus fumigatus of 32 µg/mL (≈ 70.4 µM).
